As a reminder, the IC50 is the concentration that inhibits the measured activity by half. Read a low IC50 as higher potency.

Each structure is given as a SMILES string.

Assay [1] in a line: Inhibition of ET- 1 stimulated arachidonic acid release (AAR) in cultured rabbit renal vascular smooth muscle cells expressing the endothelin A receptor.
Assay [2] in a line: Inhibition of ET- 1 stimulated arachidonic acid release (AAR) in cultured rabbit renal vascular smooth muscle cells expressing the endothelin B receptor.
Assay [3] is described as follows: Compound was evaluated for the receptor binding activity in rabbit artery vascular smooth muscle cells expressing Endothelin A receptor.

For the compound `COc1cc2c(Sc3ccc4c(c3)OCO4)c(C(=O)O)n(Cc3ccc4c(c3)OCO4)c2cc1OCc1ccccc1` [1-Benzo[1,3]dioxol-5-ylmethyl-3-(benzo[1,3]dioxol-5-ylsulfanyl)-6-benzyloxy-5-methoxy-1H-indole-2-carboxylic acid], the IC50 in assay [1] is 3.4 µM; in assay [2], 0.74 µM. As for `COc1cccc(Sc2c(C(=O)O)sc3ccccc23)c1` [3-(3-Methoxy-phenylsulfanyl)-benzo[b]thiophene-2-carboxylic acid], the IC50 in assay [3] came to 5.9 µM.

`COc1cccc(Sc2c(C(=O)O)oc3ccccc23)c1` [3-(3-Methoxy-phenylsulfanyl)-benzofuran-2-carboxylic acid] had an IC50 in assay [3] of 23 µM. In assay [1], `COc1ccc(Sc2c(C(=O)O)n(Cc3ccc4c(c3)OCO4)c3cc4c(cc23)OCO4)cc1OC` [5-Benzo[1,3]dioxol-5-ylmethyl-7-(3,4-dimethoxy-phenylsulfanyl)-5H-[1,3]dioxolo[4,5-f]indole-6-carboxylic acid] gave an IC50 of 0.065 µM.

Source of the values: BindingDB's records for doi:10.1016/0960-894X(96)00232-6 (1996).
